US20140288025A1, “FATTY ACID ANTIVIRAL CONJUGATES AND THEIR USES” (Catabasis Pharmaceuticals, Inc., priority 2013, published 2014)
Read-outs that look alike come from different tables or passages of the source.

What was measured:
NF-κB = NF-κB luciferase reporter assay in RAW 264.7 macrophages; format: cell-based; settings: for IC50: Mus musculus
Description: RAW 264.7 cells stably expressing a 3×NFkB response element-drive luciferase reporter were seeded into 96 well plates in sera-free medium (Optimem) 18 hours prior to compound application. Compounds of the invention were prepared by first making 100 mM stock solutions in EtOH. […] Cells were then stimulated with 200 ng/ml LPS or vehicle control for 3 hours in the presence of the compounds of the invention. A set of six vehicles was left unstimulated with LPS in order to measure the assay floor. AlamarBlue viability dye (Invitrogen) was added to cells simultaneously with the delivery of LPS (final AlamarBlue concentration of 10%). After the 3 h incubation period with LPS, cell viability was measured by reading fluorescence (excitation 550 nm, emission 595 nm) with a Perkin Elmer Victor V plate reader. Then cell media was aspirated from each well. Luciferase signal was then developed by addition of the Britelite Plus reagent (Perkin Elmer). Luciferase activity was measured with the Perkin Elmer Victor V plate reader. NE-κB activity was expressed as a percent of the vehicle control wells (stimulated with LPS). Compounds were tested at 6 dose point titrations in triplicate to determine IC50 values.

HIV-1IIIB strain = test: HIV-1 cytoprotection assay (CEM-SS cells, MTS dye reduction); format: cell-based
Description: Cytoprotection assays are commonly used for evaluating the antiviral efficacy of test compounds against a variety of viruses in different cell lines. […] Briefly, virus and cells are mixed in the presence of test compound and incubated for 6 days. […] Each assay plate contains cell control wells (cells only), virus control wells (cells plus virus), compound toxicity control wells (cells plus compound only), compound colorimetric control wells (compound only), as well as experimental wells (compound plus cells plus virus). Cytoprotection and compound cytotoxicity are assessed by MTS (CellTiter®96 Reagent, Promega, Madison Wis.) dye reduction. […] Each assay includes the HIV reverse transcriptase inhibitor AZT as a positive control.
CEM-SS cells were obtained from the NIH AIDS Research and Reference Reagent Program and are routinely passaged in T-75 flasks using standard tissue culture techniques based on the specifications provided by the supplier. On the day preceding the assay, the cells are split 1:2 to assure they are in an exponential growth phase at the time of infection. Total cell number and percent viability determinations are performed using a hemacytometer and trypan blue exclusion. […] The cells are re-suspended at 5×10^4 cells/mL in tissue culture medium and added to the drug-containing 96-well microtiter plates in a volume of 50 μl.
The viruses used for this assay are CXCR4-tropic laboratory virus strains. The most commonly used strains are HIV-1RF and HIV-1IIIB (each obtained from the NIH AIDS Research and Reference Reagent Program). For each assay, a pre-titered aliquot of virus is removed from the freezer (−80° C.) and allowed to thaw slowly to room temperature in a biological safety cabinet. The virus is re-suspended and diluted into tissue culture medium such that the amount of virus added to each well in a volume of 50 μl is the amount determined to give between 85 to 95% cell killing at 6 days post-infection.
Each plate contains cell control wells (cells only), virus control wells (cells plus virus), drug cytotoxicity wells (cells plus drug only), drug colorimetric control wells (drug only), background control wells (media only), as well as experimental wells (drug plus cells plus virus). Samples are evaluated for antiviral efficacy with triplicate measurements using 6 concentrations at half-log dilutions (12 concentrations can also be performed) in order to determine IC50 values and with duplicate measurements to determine cellular cytotoxicity, if detectable.
100% EtOH is added to the compounds of the invention such that the EtOH stock concentration is 50 mM. […] (VWR Ultrasonics Cleaner, Model #B8500A-DTH with “Sonics Power” set to HI); e) The 1:2 serial dilutions of the 1 mM 10× stock solution with FBS/2% EtOH are prepared such that the concentrations of the 10× stock solutions are 1 mM, 0.5 mM, 0.25 mM, etc., in FBS with 2% EtOH. Medium is aspirated off cells and replaced with serum free medium.

[1] = RAW264.7, 3 h, read-out: NF-kB inhibitory activity IC50 μM
[2] = RAW264.7, RAW 264.7 reporter cells, 200 ng/ml LPS, 3 hours, read-out: NF-kB inhibitory activity IC50
[3] = RAW 264.7 reporter cells, 200 ng/ml LPS, 3 hours
[4] = Human immunodeficiency virus 1, IIIB, CEM-SS, 144 h, read-out: IC50 HIV-1IIIB strain (nM)
[5] = CEM-SS cells, HIV-1 IIIB strain, 6 days, MTS

Row | IC50 (NF-κB; [2]) [µM] | SMILES | also measured
1 |  | CC(C)CN(C[C@@H](O)[C@H](Cc1ccccc1)NC(=O)O[C@H]1CO[C@H]2OCC[C@H]21)S(=O)(=O)c1ccc(N)cc1 [Darunavir, darunavir, reference compound] | IC50 (NF-κB; [1]): > 200 µM
2 | > 200 | C=C1[C@H](CO)[C@@H](O)C[C@@H]1n1cnc2c(=O)[nH]c(N)nc21 [Entecavir, entecavir, reference compound] | 
3 |  | CC/C=C\C/C=C\C/C=C\C/C=C\C/C=C\C/C=C\CCC(=O)NCCNC(=O)OC[C@H]1O[C@H](n2cc(C)c(=O)[nH]c2=O)C[C@@H]1N=[N+]=[N-] [Example V-5, ((2S,3S,5S)-3-azido-5-(5-methyl-2,4-dioxo-3,4-dihydropyrimidin-1(2H)-yl)tetrahydrofuran-2-yl)methyl (2-((4Z,7Z,10Z,13Z,16Z,19Z)-docosa-4,7,10,13,16,19-hexaenamido)ethyl)carbamate] | NF-kB inhibitory activity IC50 μM (NF-κB; [3]): + +; IC50 (HIV-1IIIB strain; Human immunodeficiency virus 1, 144 h, CEM-SS cells, HIV-1 IIIB strain, 6 days, MTS, read-out: IC50 HIV-1IIIB strain): > 100 nM
4 | 50 to 200 | CC/C=C\C/C=C\C/C=C\C/C=C\C/C=C\C/C=C\CCC(=O)NCCOCCNC(=O)OC[C@H]1O[C@H](n2cc(C)c(=O)[nH]c2=O)C[C@@H]1N=[N+]=[N-] [Example V-8, ((2S,3S,5S)-3-azido-5-(5-methyl-2,4-dioxo-3,4-dihydropyrimidin-1(2H)-yl)tetrahydrofuran-2-yl)methyl (2-(2-((4Z,7Z,10Z,13Z,16Z,19Z)-docosa-4,7,10,13,16,19-hexaenamido)ethoxy)ethyl)carbamate] | 
5 | 50 to 200 | CC/C=C\C/C=C\C/C=C\C/C=C\C/C=C\C/C=C\CCC(=O)N[C@H](C(=O)OC[C@H]1O[C@H](n2cc(C)c(=O)[nH]c2=O)C[C@@H]1N=[N+]=[N-])C(C)C [Example V-9, (S)-((2S,3S,5S)-3-azido-5-(5-methyl-2,4-dioxo-3,4-dihydropyrimidin-1(2H)-yl)tetrahydrofuran-2-yl)methyl 2-((4Z,7Z,10Z,13Z,16Z,19Z)-docosa-4,7,10,13,16,19-hexaenamido)-3-methylbutanoate] | 
6 | 50 to 200 | CC/C=C\C/C=C\C/C=C\C/C=C\C/C=C\C/C=C\CCC(=O)Nc1ncc2ncn(CCC(COC(C)=O)COC(C)=O)c2n1 [Example V-10, 2-(2-(2-((4Z,7Z,10Z,13Z,16Z,19Z)-docosa-4,7,10,13,16,19-hexaenamido)-9H-purin-9-yl)ethyl)propane-1,3-diyl diacetate] | 
7 | 50 to 200 | CC/C=C\C/C=C\C/C=C\C/C=C\C/C=C\C/C=C\CCC(=O)Nc1ncc2ncn(CCC(CO)CO)c2n1 [Example V-11, (4Z,7Z,10Z,13Z,16Z,19Z)—N-(9-(4-hydroxy-3-(hydroxymethyl)butyl)-9H-purin-2-yl)docosa-4,7,10,13,16,19-hexaenamide] | 
8 | 50 to 200 | CC/C=C\C/C=C\C/C=C\C/C=C\C/C=C\CCCC(=O)Nc1ncc2ncn(CCC(COC(C)=O)COC(C)=O)c2n1 [Example V-12, 2-(2-(2-((5Z,8Z,11Z,14Z,17Z)-icosa-5,8,11,14,17-pentaenamido)-9H-purin-9-yl)ethyl)propane-1,3-diyl diacetate] | 
9 | < 50 | CC/C=C\C/C=C\C/C=C\C/C=C\C/C=C\C/C=C\CCC(=O)NCCN(C)CCNC(=O)OC[C@H]1O[C@@H](n2ccc(N)nc2=O)[C@](C)(F)[C@@H]1O [Example V-30, ((2R,3R,4R,5R)-5-(4-amino-2-oxopyrimidin-1(2H)-yl)-4-fluoro-3-hydroxy-4-methyltetrahydrofuran-2-yl)methyl (2-((2-((4Z,7Z,10Z,13Z,16Z,19Z)-docosa-4,7,10,13,16,19-hexaenamido)ethyl)(methyl)amino)ethyl)carbamate] | 
10 | > 200 | CC(=O)OCC(CCn1cnc2cnc(N)nc21)COC(C)=O [Famciclovir, reference compound] | 
11 |  | CC/C=C\C/C=C\C/C=C\C/C=C\C/C=C\C/C=C\CCC(=O)NCCNP(=O)(OC[C@H]1O[C@H](n2cc(C)c(=O)[nH]c2=O)C[C@@H]1N=[N+]=[N-])Oc1ccccc1 (stereo partly drawn) [II-25, ((2S,3S,5S)-3-azido-5-(5-methyl-2,4-dioxo-3,4-dihydropyrimidin-1(2H)-yl)tetrahydrofuran-2-yl)methyl phenyl (2-((4Z,7Z,10Z,13Z,16Z,19Z)-docosa-4,7,10,13,16,19-hexaenamido)ethyl)phosphoramidate] | NF-kB inhibitory activity IC50 μM (NF-κB; [3]): + +; IC50 (HIV-1IIIB strain; [4]): < 100 nM
12 |  | CC/C=C\C/C=C\C/C=C\C/C=C\C/C=C\CCCC(=O)NCCNP(=O)(OC)OC[C@H]1O[C@H](n2cc(C)c(=O)[nH]c2=O)C[C@@H]1N=[N+]=[N-] (stereo partly drawn) [II-30, ((2S,3S,5S)-3-azido-5-(5-methyl-2,4-dioxo-3,4-dihydropyrimidin-1(2H)-yl)tetrahydrofuran-2-yl)methyl methyl (2-((5Z,8Z,11Z,14Z,17Z)-icosa-5,8,11,14,17-pentaenamido)ethyl)phosphoramidate] | NF-kB inhibitory activity IC50 μM (NF-κB; [3]): + +; IC50 (HIV-1IIIB strain; [4]): > 100 nM
13 |  | CC/C=C\C/C=C\C/C=C\C/C=C\C/C=C\CCCC(=O)NCCNP(=O)(OC)OC[C@@H]1O[C@H](n2ccc(N)nc2=O)CS1 (stereo partly drawn) [II-70, ((2R,5S)-5-(4-amino-2-oxopyrimidin-1(2H)-yl)-1,3-oxathiolan-2-yl)methyl methyl (2-((5Z,8Z,11Z,14Z,17Z)-icosa-5,8,11,14,17-pentaenamido)ethyl)phosphoramidate] | IC50 (NF-κB; [1]): 50 to 200 µM
14 | > 200 | Nc1ccn([C@@H]2CS[C@H](CO)O2)c(=O)n1 [Lamivudine, lamivudine, reference compound] | 
15 |  | CC/C=C\C/C=C\C/C=C\C/C=C\C/C=C\C/C=C\CCC(=O)Nc1ccc(S(=O)(=O)N(CC(C)C)C[C@@H](O)[C@H](Cc2ccccc2)NC(=O)O[C@H]2CO[C@H]3OCC[C@H]32)cc1 [VII-1, (3R,3aS,6aR)-hexahydrofuro[2,3-b]furan-3-yl ((2S,3R)-4-(4-((4Z,7Z,10Z,13Z,16Z,19Z)-docosa-4,7,10,13,16,19-hexaenamido)-N-isobutylphenylsulfonamido)-3-hydroxy-1-phenylbutan-2-yl)carbamate] | IC50 (NF-κB; [1]): 50 to 200 µM; IC50 HIV-1IIIB strain (nM) (HIV-1IIIB strain; [5]): + ++
16 | < 50 | CC/C=C\C/C=C\C/C=C\C/C=C\C/C=C\CCCC(=O)Nc1ccc(S(=O)(=O)N(CC(C)C)C[C@@H](O)[C@H](Cc2ccccc2)NC(=O)O[C@H]2CO[C@H]3OCC[C@H]32)cc1 [VII-2, (3R,3aS,6aR)-hexahydrofuro[2,3-b]furan-3-yl((2S,3R)-3-hydroxy-4-(4-((5Z,8Z,11Z,14Z,17Z)-icosa-5,8,11,14,17-pentaenamido)-N-isobutylphenylsulfonamido)-1-phenylbutan-2-yl)carbamate] | IC50 HIV-1IIIB strain (nM) (HIV-1IIIB strain; [5]): + ++
17 | > 200 | Cc1cn([C@H]2C[C@H](N=[N+]=[N-])[C@@H](CO)O2)c(=O)[nH]c1=O [Zidovudine, reference compound] | 
